Data on 1 molecule can be found in ChEMBL document CHEMBL2380208, “Novel quinoline derivatives as inhibitors of bacterial DNA gyrase and topoisomerase IV” (Bioorg Med Chem Lett, 2013).

In general, MIC refers to the lowest concentration found to suppress growth. A lower MIC goes with greater potency. The MIC90 is the lowest concentration that inhibits either 90% of growth or 90% of the strains tested, depending on the study. The low end stands for higher susceptibility, the high end for lower susceptibility. In general, IC50 refers to the concentration that inhibits the measured activity by half. In general, bioavailability refers to the share of a dose that reaches the circulation, judged against a reference dose that is usually intravenous. Low values mean poor availability, high ones good availability.

For data set [1], the system named is Staphylococcus aureus. The data set is described as follows: Antibacterial activity against fluoroquinolone-resistant Staphylococcus aureus harboring DNA gyrase M121K mutant. Format: functional.
In data set [2] the test system is Staphylococcus aureus. The experiment in a line: Antibacterial activity against Staphylococcus aureus. Format: functional.
For data set [3], the target named is DNA gyrase subunit A (Staphylococcus aureus, UniProt P20831, M121K). The experiment in a line: Inhibition of Staphylococcus aureus DNA gyrase M121K mutant.
Data set [4] can be described thus: Clearance in rat at 2 mg/kg, iv and 5 mg/kg, po. In kind it is ADME, organism-based. As to conditions: in vivo.
Data set [5] has as its system Streptococcus pyogenes. The experiment in a line: Antibacterial activity against Streptococcus pyogenes. Format: functional.
Data set [6] concerns Staphylococcus aureus. The experiment in a line: Antibacterial activity against fluoroquinolone-resistant Staphylococcus aureus harboring DNA gyrase D83N mutant. Format: functional.
Data set [7] is described as follows: Inhibition of Streptococcus pneumoniae DNA gyrase.
The test system of data set [8] is Staphylococcus aureus. The experiment in a line: Antibacterial activity against fluoroquinolone-resistant Staphylococcus aureus 1095. In kind it is functional.
The nature of data set [9]: Inhibition of Streptococcus pneumoniae topoisomerase 4.
Data set [10] has as its system Staphylococcus aureus. The experiment in a line: Antibacterial activity against fluoroquinolone-resistant Staphylococcus aureus 1095 infected in mouse assessed as survival compound administered 0.5 to 4 hrs post-infection measured after 7 days. In kind it is functional. Conditions: read-out: PD50.
Data set [11] can be described thus: Inhibition of human DNA topoisomerase 4.
A short description of data set [12]: Oral bioavailability in rat at 5 mg/kg. Conditions: in vivo. Format: ADME, organism-based.
Data set [13] has as its system Staphylococcus aureus. The data set is described as follows: Antibacterial activity against Staphylococcus aureus 1146. In kind it is functional.
Data set [14] relates to Streptococcus pyogenes. The experiment in a line: Antibacterial activity against Streptococcus pyogenes 02C0203 infected in mouse assessed as survival compound administered 0.5 to 4 hrs post-infection measured after 7 days. Conditions: 02C0203, in Mus musculus, read-out: PD50.
The target in data set [15] is DNA gyrase subunit A (Staphylococcus aureus, UniProt P20831, D83N). The experiment in a line: Inhibition of Staphylococcus aureus DNA gyrase D83N mutant.
A short description of data set [16]: Volume of distribution at steady state in rat at 2 mg/kg, iv and 5 mg/kg, po. Format: ADME, organism-based. As to conditions: in vivo, read-out: Vdss.
The next data set addresses DNA gyrase (Staphylococcus aureus, UniProt P0A0K8+P20831). The experiment in a line: Inhibition of Staphylococcus aureus DNA gyrase. In kind it is protein-complex assay.
A short description of data set [17]: Inhibition of Staphylococcus aureus DNA topoisomerase 4.
In data set [18] the target is Voltage-gated inwardly rectifying potassium channel KCNH2 (Homo sapiens, UniProt Q12809). The data set is described as follows: Inhibition of human ERG channel in HEK293 cells by voltage-gated patch clamp technique. Format: cell-based. (In general: In patch-clamp work, channel activity is measured electrically.)

In brackets after ≈: the same amount, converted by molar mass. Some results are limits rather than exact numbers.

Sequence of Voltage-gated inwardly rectifying potassium channel KCNH2 (Q12809 whole entry): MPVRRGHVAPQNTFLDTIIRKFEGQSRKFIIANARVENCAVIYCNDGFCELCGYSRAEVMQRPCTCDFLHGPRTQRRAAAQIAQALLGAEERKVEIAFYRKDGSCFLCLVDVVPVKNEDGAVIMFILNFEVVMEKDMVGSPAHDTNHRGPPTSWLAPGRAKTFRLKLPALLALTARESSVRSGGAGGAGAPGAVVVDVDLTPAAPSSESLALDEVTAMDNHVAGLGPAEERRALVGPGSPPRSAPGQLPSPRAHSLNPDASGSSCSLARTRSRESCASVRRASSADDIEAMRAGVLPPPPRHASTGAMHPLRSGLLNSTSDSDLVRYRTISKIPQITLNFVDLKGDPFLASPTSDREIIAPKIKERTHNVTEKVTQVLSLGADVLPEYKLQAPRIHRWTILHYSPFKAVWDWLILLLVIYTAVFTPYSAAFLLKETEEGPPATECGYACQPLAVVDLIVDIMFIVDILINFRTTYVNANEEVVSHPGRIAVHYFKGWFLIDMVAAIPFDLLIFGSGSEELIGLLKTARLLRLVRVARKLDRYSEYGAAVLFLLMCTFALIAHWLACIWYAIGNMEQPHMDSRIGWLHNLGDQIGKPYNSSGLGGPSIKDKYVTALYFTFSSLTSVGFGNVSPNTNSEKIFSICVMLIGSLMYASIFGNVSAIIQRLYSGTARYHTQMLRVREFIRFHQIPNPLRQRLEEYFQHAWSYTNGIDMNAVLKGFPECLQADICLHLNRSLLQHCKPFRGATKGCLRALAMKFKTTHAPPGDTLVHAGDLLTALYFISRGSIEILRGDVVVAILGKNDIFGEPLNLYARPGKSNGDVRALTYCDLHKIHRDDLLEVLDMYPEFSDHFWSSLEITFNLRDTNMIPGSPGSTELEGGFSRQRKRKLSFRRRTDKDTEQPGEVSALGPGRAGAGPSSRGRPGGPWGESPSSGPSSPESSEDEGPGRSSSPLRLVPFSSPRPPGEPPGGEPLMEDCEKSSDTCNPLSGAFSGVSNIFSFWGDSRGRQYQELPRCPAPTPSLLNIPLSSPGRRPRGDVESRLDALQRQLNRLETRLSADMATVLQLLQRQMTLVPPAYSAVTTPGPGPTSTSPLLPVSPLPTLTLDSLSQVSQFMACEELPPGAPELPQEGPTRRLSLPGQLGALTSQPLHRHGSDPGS

As to `COc1ccc2nccc([C@@H](O)CC[C@@H]3CCN(C4CC(c5ccccc5)C4)C[C@@H]3C(=O)O)c2c1` (some centres undefined), the MIC with Staphylococcus aureus [1] is no less than 64 µg/mL; against Staphylococcus aureus [6] it was no less than 32 µg/mL; in the data set on Staphylococcus aureus [8] it was 0.2 µg/mL (≈ 0.421 µM); with Staphylococcus aureus [13] it was 0.09 µg/mL (≈ 0.19 µM). The MIC90 against Staphylococcus aureus [2] was determined as 0.25 µg/mL (≈ 0.527 µM); in the data set with Streptococcus pyogenes [5], 1 µg/mL (≈ 2.11 µM). The IC50 is greater than 200 µM against DNA gyrase subunit A [3]; 8.84 µM in data set [7]; 8.37 µM in data set [9]; greater than 200 µM in [11]; greater than 200 µM against DNA gyrase subunit A [15]; 1.19 µM against DNA gyrase. For the same molecule, the values for the IC50 in data set [17] and in [18] were 32.1 µM and 24.9 µM, respectively. Also, the clearance in data set [4] amounted to 43.1 mL/min/kg. The figures for the ED50 in the data set on Staphylococcus aureus [10] and in the data set on Streptococcus pyogenes [14] were 6.9 mg/kg and 14.1 mg/kg, respectively. This molecule also yielded a bioavailability in data set [12] of 27%. Further, in [16], the Vd was found to be 1.24 L/kg.
